How the values were obtained:
[1] = molecular target: T1, PDGF-Ra (Homo sapiens, UniProt P16234); test: Inhibitory activity against PDGF-Ra phosphorylation by PDGF-AA stimulation using G292; format: cell-based; settings: for IC50: > means inhibition at indicated concentration not more than 50%, < and << not less than 50%, read-out: PDGF (E) IC50; for inhibition at 0.1 µM: G292, figure within parentheses in >100( ), at 100 nM, read-out: PDGF (E) inhibition (%) at 100 nM
T1 construct: host or cells: G-292 human osteosarcoma cells
T1 sequence (P16234 24-1089): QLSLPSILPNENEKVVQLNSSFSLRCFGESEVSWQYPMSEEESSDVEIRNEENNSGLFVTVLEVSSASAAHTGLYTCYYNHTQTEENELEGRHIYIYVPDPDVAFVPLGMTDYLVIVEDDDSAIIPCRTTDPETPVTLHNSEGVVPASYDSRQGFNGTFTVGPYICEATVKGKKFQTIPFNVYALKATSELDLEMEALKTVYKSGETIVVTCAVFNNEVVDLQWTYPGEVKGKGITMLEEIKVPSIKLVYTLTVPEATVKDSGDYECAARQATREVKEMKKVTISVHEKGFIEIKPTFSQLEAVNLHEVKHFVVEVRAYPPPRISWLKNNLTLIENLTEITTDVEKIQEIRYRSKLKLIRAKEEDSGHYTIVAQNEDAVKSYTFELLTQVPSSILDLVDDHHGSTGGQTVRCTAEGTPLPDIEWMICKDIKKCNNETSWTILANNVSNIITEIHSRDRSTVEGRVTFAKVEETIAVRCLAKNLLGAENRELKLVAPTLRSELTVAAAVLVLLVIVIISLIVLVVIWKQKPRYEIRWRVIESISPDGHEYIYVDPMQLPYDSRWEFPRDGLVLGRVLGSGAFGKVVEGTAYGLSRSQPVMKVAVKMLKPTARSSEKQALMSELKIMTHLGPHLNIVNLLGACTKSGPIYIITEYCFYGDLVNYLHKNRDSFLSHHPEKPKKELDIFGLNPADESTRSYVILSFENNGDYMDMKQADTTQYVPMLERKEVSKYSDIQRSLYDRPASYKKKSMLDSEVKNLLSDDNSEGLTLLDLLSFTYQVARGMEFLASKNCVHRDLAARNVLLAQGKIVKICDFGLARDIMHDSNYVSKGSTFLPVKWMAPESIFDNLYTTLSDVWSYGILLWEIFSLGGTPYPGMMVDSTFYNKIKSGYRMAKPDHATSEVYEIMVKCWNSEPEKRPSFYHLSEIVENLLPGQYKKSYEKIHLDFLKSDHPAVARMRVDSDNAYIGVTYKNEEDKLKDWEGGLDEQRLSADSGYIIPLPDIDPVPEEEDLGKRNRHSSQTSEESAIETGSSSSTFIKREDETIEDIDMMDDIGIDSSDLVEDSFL
Summary of the method: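 G-292 human osteosarcoma cells, serum-starved overnight in 0.1% FBS, were pretreated with compound in DMSO for 1 hr at 37 °C, then stimulated with 50 ng/ml PDGF-AA for 5 min. Lysates were captured on anti-phosphotyrosine PY-20 plates and probed with anti-PDGF-Ra plus HRP secondary; absorbance read at 450 nm.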

[2] = molecular target: T2, c-kit (Homo sapiens, UniProt P10721); test: Inhibitory activity against c-kit autophosphorylation (MO7e cells, h-SCF); format: cell-based; settings: for IC50: MO7e cells, 50 ng/ml h-SCF, read-out: c-kit IC50; for inhibition at 1 µM: Mo7e, figure within parentheses in −( ) or >1000( ), at 1000 nM
T2 construct: MO7e (human megakaryocytic leukemia cell line) which had been arrested for 20 hr; endogenous in cells; host or cells: MO7e human megakaryocytic leukemia cell line
T2 sequence (P10721 26-976): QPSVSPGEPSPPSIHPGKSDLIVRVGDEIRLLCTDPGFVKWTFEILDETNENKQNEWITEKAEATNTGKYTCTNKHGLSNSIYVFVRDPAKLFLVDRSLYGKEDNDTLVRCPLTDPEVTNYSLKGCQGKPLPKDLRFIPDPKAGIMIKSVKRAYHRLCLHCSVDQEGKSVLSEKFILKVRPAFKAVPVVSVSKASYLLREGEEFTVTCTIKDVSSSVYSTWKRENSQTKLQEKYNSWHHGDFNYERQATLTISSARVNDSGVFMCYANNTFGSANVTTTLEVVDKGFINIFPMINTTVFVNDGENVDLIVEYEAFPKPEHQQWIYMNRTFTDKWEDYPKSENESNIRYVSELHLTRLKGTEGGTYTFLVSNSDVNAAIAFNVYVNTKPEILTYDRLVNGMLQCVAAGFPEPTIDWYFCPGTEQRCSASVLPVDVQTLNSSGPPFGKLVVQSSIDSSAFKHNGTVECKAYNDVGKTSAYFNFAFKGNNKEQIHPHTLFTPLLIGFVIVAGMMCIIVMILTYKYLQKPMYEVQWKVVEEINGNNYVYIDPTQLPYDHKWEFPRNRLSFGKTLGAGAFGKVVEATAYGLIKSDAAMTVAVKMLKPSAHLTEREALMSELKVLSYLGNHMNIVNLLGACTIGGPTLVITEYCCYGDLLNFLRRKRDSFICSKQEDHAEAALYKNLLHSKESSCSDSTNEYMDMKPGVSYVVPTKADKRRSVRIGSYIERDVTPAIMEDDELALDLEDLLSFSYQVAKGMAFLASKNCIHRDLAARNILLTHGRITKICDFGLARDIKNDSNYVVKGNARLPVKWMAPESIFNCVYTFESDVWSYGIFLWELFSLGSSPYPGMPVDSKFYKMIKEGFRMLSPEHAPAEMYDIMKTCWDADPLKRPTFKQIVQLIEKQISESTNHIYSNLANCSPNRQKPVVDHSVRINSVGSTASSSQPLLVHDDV
Summary of the method: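 In this cellular autophosphorylation assay, compound-treated MO7e cells (1 hr) were challenged with human stem cell factor at 50 ng/ml for 5 min; detection relied on PY-20 capture and anti-c-kit/HRP immunodetection at 450 nm.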

Row | IC50 [1] | IC50 [2] | inhibition at 0.1 µM [1] | inhibition at 1 µM [2] | Compound
1 | 45 nM | 147 nM | – | – | COc1cc2nccc(Oc3ccc(NC(=O)NC4CCN(Cc5ccccc5C)C4)cc3)c2cc1OC (stereo not shown) [Example 574, N-{4-[(6,7-Dimethoxy-4-quinolyl)oxy]phenyl}-N′-[1-(2-methylbenzyl)tetrahydro-1H-3-pyrrolyl]urea]
2 | 27 nM | 664 nM | – | – | COc1cc2ncnc(Oc3ccc(NC(=O)N[C@@H]4CCN(Cc5ccccc5)C4)c(Cl)c3)c2cc1OC [Example 575, N-[(3R)-1-Benzyltetrahydro-1H-3-pyrrolyl]-N′-{2-chloro-4-[(6,7-dimethoxy-4-quinazolinyl)oxy]phenyl}urea]
3 | 36 nM | 151 nM | – | – | COc1cc2ncnc(Oc3ccc(NC(=O)N[C@H]4CCN(Cc5ccccc5)C4)c(Cl)c3)c2cc1OC [Example 576, N-[(3S)-1-Benzyltetrahydro-1H-3-pyrrolyl]-N′-{2-chloro-4-[(6,7-dimethoxy-4-quinazolinyl)oxy]phenyl}urea]
4 | 14 nM | 328 nM | – | – | COc1cc2ncnc(Oc3ccc(NC(=O)N[C@@H]4CCN(Cc5ccccc5)C4)c([N+](=O)[O-])c3)c2cc1OC [Example 577, N-[(3R)-1-Benzyltetrahydro-1H-3-pyrrolyl]-N′-{4-[(6,7-dimethoxy-4-quinazolinyl)oxy]-2-nitrophenyl}urea]
5 | 18 nM | 104 nM | – | – | COc1cc2ncnc(Oc3ccc(NC(=O)N[C@H]4CCN(Cc5ccccc5)C4)c([N+](=O)[O-])c3)c2cc1OC [Example 578, N-[(3S)-1-Benzyltetrahydro-1H-3-pyrrolyl]-N′-{4-[(6,7-dimethoxy-4-quinazolinyl)oxy]-2-nitrophenyl}urea]
6 | 22 nM | 145 nM | – | – | COc1cc2nccc(Oc3ccc(NC(=O)NC4CCN(Cc5ccccc5Cl)C4)cc3)c2cc1OC (stereo not shown) [Example 579, N-[1-(2-Chlorobenzyl)tetrahydro-1H-3-pyrrolyl]-N′-{4-[(6,7-dimethoxy-4-quinolyl)oxy]phenyl}urea]
7 | 14 nM | 84 nM | – | – | COc1cc2ncnc(Oc3ccc(NC(=O)NC4CCN(Cc5ccccc5Cl)C4)cc3)c2cc1OC (stereo not shown) [Example 580, N-[1-(2-Chlorobenzyl)tetrahydro-1H-3-pyrrolyl]-N′-{4-[(6,7-dimethoxy-4-quinazolinyl)oxy]phenyl}urea]
8 | 14 nM | 180 nM | – | – | COc1cc2ncnc(Oc3ccc(NC(=O)NC4CCN(Cc5ccccc5Cl)C4)c([N+](=O)[O-])c3)c2cc1OC (stereo not shown) [Example 581, N-[1-(2-Chlorobenzyl)tetrahydro-1H-3-pyrrolyl]-N′-{4-[(6,7-dimethoxy-4-quinazolinyl)oxy]-2-nitrophenyl}urea]
9 | > 100 nM | – | 20% | 29% | COc1cc2nccc(Oc3ccc(NC(=O)NC4CCN(Cc5ccc(C(C)(C)C)cc5)C4)cc3)c2cc1OC (stereo not shown) [Example 582, N-{1-[4-(Tert-butyl)benzyl]tetrahydro-1H-3-pyrrolyl}-N′-{4-[(6,7-dimethoxy-4-quinolyl)oxy]phenyl}urea]
10 | > 100 nM | – | 17% | 18% | COc1cc2ncnc(Oc3ccc(NC(=O)NC4CCN(Cc5ccc(C(C)(C)C)cc5)C4)cc3)c2cc1OC (stereo not shown) [Example 583, N-{1-[4-(Tert-butyl)benzyl]tetrahydro-1H-3-pyrrolyl}-N′-{4-[(6,7-dimethoxy-4-quinazolinyl)oxy]phenyl}urea]
11 | > 100 nM | – | 13% | 13% | COc1cc2ncnc(Oc3ccc(NC(=O)NC4CCN(Cc5ccc(C(C)(C)C)cc5)C4)c([N+](=O)[O-])c3)c2cc1OC (stereo not shown) [Example 584, N-{1-[4-(Tert-butyl)benzyl]tetrahydro-1H-3-pyrrolyl}-N′-{4-[(6,7-dimethoxy-4-quinazolinyl)oxy]-2-nitrophenyl}urea]
12 | 63 nM | 734 nM | – | – | COc1cc2ncnc(Oc3ccc(NC(=O)NC4CCN(CC5CCCCC5)C4)cc3)c2cc1OC (stereo not shown) [Example 586, N-[1-(Cyclohexylmethyl)tetrahydro-1H-3-pyrrolyl]-N′-{4-[(6,7-dimethoxy-4-quinazolinyl)oxy]phenyl}urea]
13 | 67 nM | – | – | 16% | COc1cc2ncnc(Oc3ccc(NC(=O)NC4CCN(CC5CCCCC5)C4)c([N+](=O)[O-])c3)c2cc1OC (stereo not shown) [Example 587, N-[1-(Cyclohexylmethyl)tetrahydro-1H-3-pyrrolyl]-N′-{4-[(6,7-dimethoxy-4-quinazolinyl)oxy]-2-nitrophenyl}urea]
14 | 28 nM | 487 nM | – | – | CCN(CC)CCNC(=S)Nc1ccc(Oc2ccnc3cc(OC)c(OC)cc23)cc1 [Example 589, N-{4-[(6,7-Dimethoxy-4-quinolyl)oxy]phenyl}-N′-(2-diethylaminoethyl)thiourea]
15 | 33 nM | 117 nM | – | – | COc1cc2ncnc(Oc3ccc(NC(=O)NC4CCN(Cc5ccccc5)CC4)cc3)c2cc1OC [Example 591, N-{4-[(6,7-Dimethoxy-4-quinazolinyl)oxy]phenyl}-N′-[4-(N-benzyl)piperidinyl]urea]
16 | 23 nM | 472 nM | – | – | COc1cc2nccc(Oc3ccc(NC(=O)NN4CCCCC4)cc3)c2cc1OC [Example 592, N-{4-[(6,7-Dimethoxy-4-quinolyl)oxy]phenyl}-N′-(1-piperidinyl)urea]
17 | > 100 nM | – | 39% | 10% | COc1cc2nccc(Oc3ccc(NC(=O)NN4CCCCC4)c([N+](=O)[O-])c3)c2cc1OC [Example 594, N-{4-[(6,7-Dimethoxy-4-quinolyl)oxy]-2-nitrophenyl}-N′-(1-piperidinyl)urea]
18 | 63 nM | 719 nM | – | – | COc1cc(Oc2ncnc3cc(OC)c(OC)cc23)ccc1NC(=O)NN1CCCCC1 [Example 596, N-{4-[(6,7-Dimethoxy-4-quinazolinyl)oxy]-2-methoxyphenyl}-N′-(1-piperidinyl)urea]
19 | > 100 nM | – | 27% | 8% | COc1cc2ncnc(Oc3ccc(NC(=O)NN4CCCCC4)c([N+](=O)[O-])c3)c2cc1OC [Example 597, N-{4-[(6,7-Dimethoxy-4-quinazolinyl)oxy]-2-nitrophenyl}-N′-(1-piperidinyl)urea]
20 | 19 nM | 423 nM | – | – | COc1cc(Oc2ccnc3cc(OC)c(OC)cc23)ccc1NC(=O)NN1CCCCC1 [Example 598, N-{4-[(6,7-Dimethoxy-4-quinolyl)oxy]-2-methoxyphenyl}-N′-(1-piperidinyl)urea]
21 | 11 nM | 180 nM | – | – | COc1cc2ncnc(Oc3ccc(NC(=O)NN4CCCCCC4)cc3)c2cc1OC [Example 602, N-{4-[(6,7-Dimethoxy-4-quinazolinyl)oxy]phenyl}-N′-(1-homopiperidinyl)urea]
22 | > 100 nM | 864 nM | 42% | – | COc1cc2ncnc(Oc3ccc(NC(=O)NN4CCCCC4)cc3)c2cc1OC [Example 603, N-{4-[(6,7-Dimethoxy-4-quinazolinyl)oxy]phenyl}-N′-(1-piperidinyl)urea]
23 | 73 nM | 322 nM | – | – | COc1cc2nccc(Oc3ccc(NC(=O)NC4CCN(Cc5ccccc5)C4)c(C)c3C)c2cc1OC (stereo not shown) [Example 604, N-{4-[(6,7-Dimethoxy-4-quinolyl)oxy]-2,3-dimethylphenyl}-N′-[4-(N-benzyl)piperidinyl]urea]
24 | 18 nM | 263 nM | – | – | COc1cc2ncnc(Oc3ccc(NC(=O)NC4CCN(Cc5ccccc5)CC4)c([N+](=O)[O-])c3)c2cc1OC [Example 606, N-{4-[(6,7-Dimethoxy-4-quinazolinyl)oxy]-2-nitrophenyl}-N′-[4-(N-benzyl)piperidinyl]urea]
25 | 29 nM | 554 nM | – | – | COc1cc(Oc2ccnc3cc(OC)c(OC)cc23)ccc1NC(=O)NC1CCN(Cc2ccccc2)CC1 [Example 607, N-{4-[(6,7-Dimethoxy-4-quinolyl)oxy]-2-methoxyphenyl}-N′-[4-(N-benzyl)piperidinyl]urea]
26 | < 10 nM | 201 nM | – | – | COc1cc2nccc(Oc3ccc(NC(=O)NN4CCCCCC4)cc3)c2cc1OC [Example 608, N-{4-[(6,7-Dimethoxy-4-quinolyl)oxy]phenyl}-N′-(1-homopiperidinyl)urea]
27 | 36 nM | 224 nM | – | – | COc1cc2nccc(Oc3cc(C)c(NC(=O)NCCN4CCOCC4)cc3C)c2cc1OC [Example 616, N-{4-[(6,7-Dimethoxy-4-quinolyl)oxy]-2,5-dimethylphenyl}-N′-(2-morpholinoethyl)urea]
28 | < 10 nM | 172 nM | – | – | COc1cc2nccc(Oc3ccc(NC(=O)NCCN4CCOCC4)c(C)c3C)c2cc1OC [Example 617, N-{4-[(6,7-Dimethoxy-4-quinolyl)oxy]-2,3-dimethylphenyl}-N′-(2-morpholinoethyl)urea]
29 | < 10 nM | 948 nM | – | – | COc1cc2nccc(Oc3ccc(NC(=O)NCCN4CCCC4)cc3)c2cc1OC [Example 618, N-{4-[(6,7-Dimethoxy-4-quinolyl)oxy]phenyl}-N′-(2-tetrahydro-1H-1-pyrrolylethyl)urea]
30 | > 100 nM | – | 49% | 44% | COc1cc2nccc(Oc3cc(C)c(NC(=O)NCCN4CCCC4)cc3C)c2cc1OC [Example 619, N-{4-[(6,7-Dimethoxy-4-quinolyl)oxy]-2,5-dimethylphenyl}-N′-(2-tetrahydro-1H-1-pyrrolylethyl)urea]

From US7135466B2 (Kirin Beer Kabushiki Kaisha, priority 1999, dated 2006)
